Results: paper PMC7612645 (2021)

System: US (RNA, single strand) UUUUUACCUAUCUCUUUUUCUCU
Assay: SPR
Settings: 250 mM NaCl; 20 mM HEPES pH 7.5, 2% DMSO, 0.1% Tween20, 37 °C; trace shown at 40 nM compound

binding: no
Compound: Cc1nc2nc(CN)nn2c(C)c1CCC(=O)Nc1ccc(F)c(Cl)c1
